59 molecules from patent US7101878B1 (Agouron Pharmaceuticals, Inc., priority 1998, dated 2006) can be followed below.

This experiment concerns the target T1, mouse GnRH receptor (Mus musculus, UniProt Q01776).
T1 construct: expressed in transfected cells; host or cells: 293 cells
T1 sequence (Q01776 1-327): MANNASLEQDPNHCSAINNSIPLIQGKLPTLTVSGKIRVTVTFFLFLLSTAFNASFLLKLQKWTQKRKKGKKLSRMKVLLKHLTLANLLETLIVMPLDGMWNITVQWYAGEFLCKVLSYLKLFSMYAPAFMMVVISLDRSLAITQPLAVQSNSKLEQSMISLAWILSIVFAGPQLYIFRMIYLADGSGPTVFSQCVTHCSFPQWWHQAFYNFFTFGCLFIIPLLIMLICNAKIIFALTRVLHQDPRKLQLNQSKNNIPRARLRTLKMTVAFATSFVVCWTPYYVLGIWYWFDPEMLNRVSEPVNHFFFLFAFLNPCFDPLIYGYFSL
Kind of experiment: Radioligand binding, 125I-GnRH-A, 293 cells expressing mouse GnRH receptors. To be noted: 1 h, substrate remaining; 10 uM compound; closer to zero = closer to 100% inhibition; read-out: S%R 10 uM mGnRHR. Summed up: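 Bound label captured on 0.1% polyethyleneimine-treated GF/C filters, washed three times with PBS, counted. IC50 derived; identical set-up for every species.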
With `CCN(CC)CCN(C)C(=O)c1ccc(Cc2cc3c(cc2C)C(C)(C)CCC3(C)C)o1` [Compound 532], the remaining activity at 10 µM was 12%.
Regarding `Cc1cc2c(cc1Cc1ccc(C(=O)NC(C)(C)C)o1)C(C)(C)CCC2(C)C` [Compound 533], the remaining activity at 10 µM is 29%.
With `Cc1cc2c(cc1Cc1ccc(C(=O)N(CCN3CCOCC3)Cc3ccccc3)o1)C(C)(C)CCC2(C)C` [Compound 534], the remaining activity at 10 µM amounted to 9%.
On to `Cc1cc2c(cc1Cc1ccc(C(=O)N(C)CCC=C3c4ccccc4CCc4ccccc43)o1)C(C)(C)CCC2(C)C` [Compound 535], for which the remaining activity at 10 µM turned out to be 43%.
For the molecule `CCOC(=O)CN(Cc1ccccc1)C(=O)c1ccc(Cc2cc3c(cc2C)C(C)(C)CCC3(C)C)o1` [Compound 536], the remaining activity at 10 µM was found to be 38%.
As for `Cc1cc2c(cc1Cc1ccc(C(=O)N3CCN(CCO)CC3)o1)C(C)(C)CCC2(C)C` [Compound 537], the remaining activity at 10 µM amounted to 32%.
In the case of `C=CCN(CC=C)C(=O)c1ccc(Cc2cc3c(cc2C)C(C)(C)CCC3(C)C)o1` [Compound 538], the remaining activity at 10 µM came out at 17%.
As for `CCN(CCO)C(=O)c1ccc(Cc2cc3c(cc2C)C(C)(C)CCC3(C)C)o1` [Compound 539], the remaining activity at 10 µM was determined as 19%.
In the case of `Cc1cc2c(cc1Cc1ccc(C(=O)N(CCN3CCCC3)Cc3ccccc3)o1)C(C)(C)CCC2(C)C` [Compound 540], the remaining activity at 10 µM came to 0%.
To `Cc1cc2c(cc1Cc1ccc(C(=O)N(CCC#N)Cc3cccnc3)o1)C(C)(C)CCC2(C)C` [Compound 541] belongs 9%; to `Cc1cc2c(cc1Cc1ccc(C(=O)N3CCC(C(=O)c4ccccc4)CC3)o1)C(C)(C)CCC2(C)C` [Compound 542], 42%; to `Cc1cc2c(cc1Cc1ccc(C(=O)N3CC=CCC3)o1)C(C)(C)CCC2(C)C` [Compound 543], 31%.
With `CC(=O)N(C)C1CCN(C(=O)c2ccc(Cc3cc4c(cc3C)C(C)(C)CCC4(C)C)o2)C1` (centres unmarked) [Compound 544], the remaining activity at 10 µM stood at 27%.
As for `Cc1cc2c(cc1Cc1ccc(C(=O)NCCc3ccccc3)o1)C(C)(C)CCC2(C)C` [Compound 545], the remaining activity at 10 µM was 28%.
For `Cc1cc2c(cc1Cc1ccc(C(=O)NC(C)C3CCCCC3)o1)C(C)(C)CCC2(C)C` (centres unmarked) [Compound 546], the remaining activity at 10 µM turned out to be 29%.
As for `Cc1cc2c(cc1Cc1ccc(C(=O)N(Cc3ccc(C(C)C)cc3)Cc3cccnc3)o1)C(C)(C)CCC2(C)C` [Compound 547], the remaining activity at 10 µM stood at 24%.
To `Cc1cc2c(cc1Cc1ccc(C(=O)N(C)C3CCN(C)CC3)o1)C(C)(C)CCC2(C)C` [Compound 548] belongs 12%; to `Cc1cc2c(cc1Cc1ccc(C(=O)N3CCC[C@H]3CNc3ccccc3)o1)C(C)(C)CCC2(C)C` [Compound 549], 48%.
For the molecule `Cc1cc2c(cc1Cc1ccc(C(=O)NC3(CO)CCCC3)o1)C(C)(C)CCC2(C)C` [Compound 550], the remaining activity at 10 µM is 3%.
On to `Cc1cc2c(cc1Cc1ccc(C(=O)N(Cc3cccnc3)Cc3cccc(C(F)(F)F)c3)o1)C(C)(C)CCC2(C)C` [Compound 551], for which the remaining activity at 10 µM is 21%.
On to `Cc1cc2c(cc1Cc1ccc(C(=O)NCCn3c([N+](=O)[O-])cnc3C)o1)C(C)(C)CCC2(C)C` [Compound 552], for which the remaining activity at 10 µM was 58%.
Consider `COc1cccc(N2CCN(C(=O)c3ccc(Cc4cc5c(cc4C)C(C)(C)CCC5(C)C)o3)CC2)c1` [Compound 553], for which the remaining activity at 10 µM was found to be 34%.
Regarding `COc1ccccc1N1CCN(C(=O)c2ccc(Cc3cc4c(cc3C)C(C)(C)CCC4(C)C)o2)CC1` [Compound 554], the remaining activity at 10 µM was found to be 27%.
Regarding `Cc1cc2c(cc1Cc1ccc(C(=O)N3CCN(CC(=O)N4CCCC4)CC3)o1)C(C)(C)CCC2(C)C` [Compound 555], the remaining activity at 10 µM was 21%.
To `Cc1cc2c(cc1Cc1ccc(C(=O)NCC(C)O)o1)C(C)(C)CCC2(C)C` (centres unmarked) [Compound 556] belongs 10%; to `COCC(C)NC(=O)c1ccc(Cc2cc3c(cc2C)C(C)(C)CCC3(C)C)o1` (centres unmarked) [Compound 557], 10%.
To `Cc1cc2c(cc1Cc1ccc(C(=O)NC(CO)CC3CCCCC3)o1)C(C)(C)CCC2(C)C` (centres unmarked) [Compound 558] belongs 24%.
Consider `Cc1cc2c(cc1Cc1ccc(C(=O)N(CC#N)Cc3ccccc3)o1)C(C)(C)CCC2(C)C` [Compound 559], for which the remaining activity at 10 µM was 26%.
`Cc1cc2c(cc1Cc1ccc(C(=O)NCCCOC(C)C)o1)C(C)(C)CCC2(C)C` [Compound 560]: the remaining activity at 10 µM turned out to be 7%.
Consider `Cc1cc2c(cc1Cc1ccc(C(=O)NCCSCCO)o1)C(C)(C)CCC2(C)C` [Compound 561], for which the remaining activity at 10 µM is 0%.
Regarding `Cc1cc2c(cc1Cc1ccc(C(=O)N3CCc4ccccc4C3)o1)C(C)(C)CCC2(C)C` [Compound 562], the remaining activity at 10 µM stood at 30%.
The result for `Cc1cc2c(cc1Cc1ccc(C(=O)N3CCCCCCC3)o1)C(C)(C)CCC2(C)C` [Compound 563] reads 13%; that for `Cc1cc2c(cc1Cc1ccc(C(=O)NC(C)(CO)CO)o1)C(C)(C)CCC2(C)C` [Compound 564], 45%.
Take `Cc1ccc(N2CCN(C(=O)c3ccc(Cc4cc5c(cc4C)C(C)(C)CCC5(C)C)o3)CC2)c(C)c1` [Compound 565]: the remaining activity at 10 µM was determined as 48%.
To `Cc1cc2c(cc1Cc1ccc(C(=O)NC[C@@H]3CCCC[C@H]3O)o1)C(C)(C)CCC2(C)C` [Compound 566] belongs 3%; to `Cc1cc2c(cc1Cc1ccc(C(=O)N(CCCN3CCN(C)CC3)Cc3cc(C)n(-c4cccc(C(F)(F)F)c4)c3C)o1)C(C)(C)CCC2(C)C` [Compound 567], -1%; to `CCC(C)CNC(=O)c1ccc(Cc2cc3c(cc2C)C(C)(C)CCC3(C)C)o1` (centres unmarked) [Compound 568], 28%.
With `Cc1cc2c(cc1Cc1ccc(C(=O)N3CCC(O)(c4ccc(Cl)cc4)CC3)o1)C(C)(C)CCC2(C)C` [Compound 569], the remaining activity at 10 µM was determined as 58%.
Turning to `Cc1cc2c(cc1Cc1ccc(C(=O)NC3c4ccccc4-c4ccccc43)o1)C(C)(C)CCC2(C)C` [Compound 570], the remaining activity at 10 µM stood at 48%.
In the case of `Cc1cc2c(cc1Cc1ccc(C(=O)NCC3(O)CCCCC3)o1)C(C)(C)CCC2(C)C` [Compound 571], the remaining activity at 10 µM was found to be 36%.
As for `Cc1cc2c(cc1Cc1ccc(C(=O)NC3CCC3)o1)C(C)(C)CCC2(C)C` [Compound 572], the remaining activity at 10 µM came out at 41%.
Take `Cc1cc2c(cc1Cc1ccc(C(=O)N3CCC(C(=O)c4ccc(F)cc4)CC3)o1)C(C)(C)CCC2(C)C` [Compound 573]: the remaining activity at 10 µM worked out at 37%.
To `Cc1cc2c(cc1Cc1ccc(C(=O)NC(CO)C(C)C)o1)C(C)(C)CCC2(C)C` (centres unmarked) [Compound 574] belongs 13%.
Consider `Cc1cc2c(cc1Cc1ccc(C(=O)N(CCN(C)C)Cc3cccc4ccccc34)o1)C(C)(C)CCC2(C)C` [Compound 575], for which the remaining activity at 10 µM is -3%.
With `Cc1cc2c(cc1Cc1ccc(C(=O)N(C)CC3OCCO3)o1)C(C)(C)CCC2(C)C` [Compound 576], the remaining activity at 10 µM amounted to 15%.
Take `CC(=O)N1CCN(C(=O)c2ccc(Cc3cc4c(cc3C)C(C)(C)CCC4(C)C)o2)CC1` [Compound 577]: the remaining activity at 10 µM turned out to be 30%.
Regarding `COc1ccc(C(NC(=O)c2ccc(Cc3cc4c(cc3C)C(C)(C)CCC4(C)C)o2)C2CC2)cc1` (centres unmarked) [Compound 578], the remaining activity at 10 µM was determined as 17%.
On to `Cc1cc2c(cc1Cc1ccc(C(=O)N3CC(C)CC(C)C3)o1)C(C)(C)CCC2(C)C` (centres unmarked) [Compound 579], for which the remaining activity at 10 µM amounted to 10%.
As for `Cc1cc2c(cc1Cc1ccc(C(=O)N(C)CC#N)o1)C(C)(C)CCC2(C)C` [Compound 580], the remaining activity at 10 µM is 18%.
`Cc1cc2c(cc1Cc1ccc(C(=O)N3CCN(c4cccc(C)c4C)CC3)o1)C(C)(C)CCC2(C)C` [Compound 581]: the remaining activity at 10 µM was 43%.
On to `Cc1cc2c(cc1Cc1ccc(C(=O)NC[C@@H]3CCCO3)o1)C(C)(C)CCC2(C)C` [Compound 582], for which the remaining activity at 10 µM was -2%.
For `Cc1cc2c(cc1Cc1ccc(C(=O)N(CCCN3CCN(C)CC3)Cc3ccc(F)cc3)o1)C(C)(C)CCC2(C)C` [Compound 583], the remaining activity at 10 µM was -3%.
As to `Cc1cc2c(cc1Cc1ccc(C(=O)N(CC(C)C)CC(C)C)o1)C(C)(C)CCC2(C)C` [Compound 584], the remaining activity at 10 µM turned out to be 15%.
On to `Cc1cc2c(cc1Cc1ccc(C(=O)N3CCC(Cc4ccccc4)CC3)o1)C(C)(C)CCC2(C)C` [Compound 585], for which the remaining activity at 10 µM was found to be 52%.
Take `Cc1cc2c(cc1Cc1ccc(C(=O)N3CCCCC3C(=O)NC(c3ccccc3)c3ccccc3)o1)C(C)(C)CCC2(C)C` (centres unmarked) [Compound 586]: the remaining activity at 10 µM amounted to 57%.
`Cc1cc2c(cc1Cc1ccc(C(=O)NC(C)CCCC(C)C)o1)C(C)(C)CCC2(C)C` (centres unmarked) [Compound 587]: the remaining activity at 10 µM turned out to be 29%.
For the molecule `Cc1cc2c(cc1Cc1ccc(C(=O)N3CCC(N4CCCC4)CC3)o1)C(C)(C)CCC2(C)C` [Compound 588], the remaining activity at 10 µM worked out at 4%.
To `CCCN(Cc1ccc([N+](=O)[O-])cc1)C(=O)c1ccc(Cc2cc3c(cc2C)C(C)(C)CCC3(C)C)o1` [Compound 589] belongs 35%.
The result for `Cc1cc2c(cc1Cc1ccc(C(=O)N(CCN(C)C)Cc3ccccc3[N+](=O)[O-])o1)C(C)(C)CCC2(C)C` [Compound 590] reads -2%.
